Laboratory results taken from patent US12421253B2 (Mirati Therapeutics, Inc., priority 2020, dated 2025).
pIC50: −log10 of the molar value.

Key:
KRas^G12D = target: T1, KRas^G12D (Homo sapiens, UniProt P01116, G12D); assay: KRas binding assay (TR-FRET displacement of Cy5 labelled tracer)
T1 construct: […]; biotin (biotinylated); purchased Accelegan Inc
Protocol: (§6) The ability of a compound to bind to KRas was measured using a TR-FRET displacement assay. […] After a 60-minute incubation at room temperature, the reaction was measured using a BMG LABTECH CLARIO star Plus via TR-FRET. […] The POC values were fit to a 4-parameter IC50 equation and the IC50 value reported.

KRas^Q61H = KRas^Q61H (Homo sapiens, UniProt P01116, Q61H); assay: biochemical
Protocol: as §6

KRas^G13D = KRas^G13D (Homo sapiens, UniProt P01116, G13D); assay: biochemical
Sequence of KRas^G13D (P01116 1-169 isoform P01116-2 G13D): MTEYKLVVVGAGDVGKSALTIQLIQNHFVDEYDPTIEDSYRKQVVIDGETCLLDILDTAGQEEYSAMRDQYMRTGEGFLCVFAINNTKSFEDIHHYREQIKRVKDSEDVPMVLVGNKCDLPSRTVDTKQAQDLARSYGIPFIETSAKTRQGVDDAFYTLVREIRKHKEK
Protocol: as §6

KRas^G12A = target: T2, KRas^G12A (Homo sapiens, UniProt P01116, G12A); assay: KRas binding assay (TR-FRET displacement of Cy5 labelled tracer)
T2 construct: […]; biotin (biotinylated); purchased Accelegan Inc
T2 sequence (P01116 1-169 isoform P01116-2 G12A): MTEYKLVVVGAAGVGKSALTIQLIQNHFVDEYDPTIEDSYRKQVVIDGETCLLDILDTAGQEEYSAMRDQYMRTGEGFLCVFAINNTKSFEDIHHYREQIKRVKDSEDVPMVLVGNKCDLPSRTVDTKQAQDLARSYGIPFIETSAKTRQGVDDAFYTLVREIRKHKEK
Protocol: as §6

KRas^G12R = target: T3, KRas^G12R (Homo sapiens, UniProt P01116, G12R); assay: as above
T3 construct: […]; biotin (biotinylated); purchased Accelegan Inc
T3 sequence (P01116 1-169 isoform P01116-2 G12R): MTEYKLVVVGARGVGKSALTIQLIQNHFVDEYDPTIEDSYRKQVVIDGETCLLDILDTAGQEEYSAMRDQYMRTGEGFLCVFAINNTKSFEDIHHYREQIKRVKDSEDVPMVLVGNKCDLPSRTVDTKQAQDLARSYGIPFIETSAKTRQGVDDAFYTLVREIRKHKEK
Protocol: as §6

[1] = system: NCI-H460 (Q61H) cells, phospho-ERK; assay: Inhibition of KRas-mediated phosphorylation of ERK (phospho-ERK/GAPDH antibody detection, LI-COR); format: cell-based; settings: Homo sapiens, 3 hours
Protocol: (§1) AsPC-1 (G12D, ATCC CRL-1682), A549 (G12S, ATCC CCL-185), HCT116 (G13D, ATCC CCL-247) cells were grown in DMEM medium supplemented with 10% fetal bovine serum and Penicillin/Streptomycin. NCI-H358 (G12C, ATCC CRL-5807), NCI-H460 (Q61H, ATCC HTB-117), NCI-H727 (G12V, ATCC CRL-5815), MKN1 (WTdep, JCRB JCRB0252), PSN-1 (G12R, ATCC CRM-CRL-3211) cells were grown in RPMI medium supplemented with 10% fetal bovine serum, 10 mM HEPES, 10 mM Sodium Pyruvate, and Penicillin/Streptomycin. Cells were plated in black well clear bottom tissue culture treated 96 well plates (Corning, 3904) at a density of 20,000 cells/well and allowed to attach for 12-14 hours. Diluted compounds were then added in a final concentration of 0.5% DMSO. After 3 hours, 50 μL of 4.0% formaldehyde was added and the plates incubated at room temperature for 20 minutes. The plates were then dumped and permeabilized with 150 μL of ice cold 100% methanol for 10 minutes. Non-specific antibody binding to the plates was blocked using 100 μL Odyssey blocking buffer (LI-COR Biosciences, 927-60010) for 1 hour at room temperature.
(§2) The amount of phospho-ERK was determined using an antibody specific for the phosphorylated form of ERK and compared to the amount of GAPDH. Primary antibodies used for the detection were added as follows: Phospho-ERK (Cell Signaling CS-9101) diluted 1:500 and GAPDH (Millipore MAB374) diluted 1:5000 in Odyssey blocking buffer+0.05% Tween 20. The plates were incubated overnight at 4 C. The plates were washed 3× with 150 uL PBS+0.1% Tween 20.
(§3) Secondary antibodies used to visualize primary antibodies were added as follows: Goat Anti-Rabbit-800 (LI-COR, 926-32211) and Goat Anti-Mouse-680 (LI-COR, 926-68070) diluted 1:800 both in Odyssey blocking buffer+0.05% Tween 20 and were incubated for 1 hour at room temperature. The plates were washed 3× with 150 uL PBS+[…]. Plates were imaged dry on a Li—COR Odyssey CLX plate reader.
(§4) The phospho-ERK (Thr202/Tyr204) signal was normalized to the GAPDH signal for each well and percent of DMSO control values were calculated. IC50 values were generated using a 4-parameter fit of the dose response curve.

[2] = system: AsPC-1 (G12D) cells, phospho-ERK; assay: as above; format: cell-based; settings: Homo sapiens, ASPC1, 3 hours
Protocol: as §1, §2, §3, §4

[3] = system: NCI-H727 (G12V) cells, phospho-ERK; assay: as above; format: cell-based; settings: Homo sapiens, 3 hours
Protocol: as §1, §2, §3, §4

KRas^G12S = target: T4, KRas^G12S (Homo sapiens, UniProt P01116, G12S); assay: KRas binding assay (TR-FRET displacement of Cy5 labelled tracer)
T4 construct: […]; biotin (biotinylated); purchased Accelegan Inc
T4 sequence (P01116 1-169 isoform P01116-2 G12S): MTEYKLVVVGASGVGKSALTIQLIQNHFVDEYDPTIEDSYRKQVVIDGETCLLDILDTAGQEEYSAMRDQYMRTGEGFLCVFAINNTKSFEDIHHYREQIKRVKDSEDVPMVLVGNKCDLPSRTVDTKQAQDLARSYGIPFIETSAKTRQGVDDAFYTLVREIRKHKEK
Protocol: as §6

KRas^WT = target: T5, KRas^WT (Homo sapiens, UniProt P01116); assay: as above
T5 construct: […]; biotin (biotinylated); purchased Accelegan Inc
T5 sequence (P01116 1-169 isoform P01116-2): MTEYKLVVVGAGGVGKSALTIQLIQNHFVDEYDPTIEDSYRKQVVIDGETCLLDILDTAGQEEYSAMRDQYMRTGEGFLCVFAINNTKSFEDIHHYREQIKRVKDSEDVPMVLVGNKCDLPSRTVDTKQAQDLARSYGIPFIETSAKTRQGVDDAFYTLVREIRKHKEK
Protocol: as §6

KRas^G12V = target: T6, KRas^G12V (Homo sapiens, UniProt P01116, G12V); assay: as above
T6 construct: […]; biotin (biotinylated); purchased Accelegan Inc
T6 sequence (P01116 1-169 isoform P01116-2 G12V): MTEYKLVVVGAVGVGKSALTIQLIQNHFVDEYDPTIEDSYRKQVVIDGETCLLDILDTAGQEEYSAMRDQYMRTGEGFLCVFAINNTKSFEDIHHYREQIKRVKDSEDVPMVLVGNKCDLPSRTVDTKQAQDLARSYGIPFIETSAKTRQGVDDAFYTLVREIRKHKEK
Protocol: as §6

KRas^G12C = KRas^G12C (Homo sapiens, UniProt P01116, G12C); assay: biochemical
Sequence of KRas^G12C (P01116 1-169 isoform P01116-2 G12C): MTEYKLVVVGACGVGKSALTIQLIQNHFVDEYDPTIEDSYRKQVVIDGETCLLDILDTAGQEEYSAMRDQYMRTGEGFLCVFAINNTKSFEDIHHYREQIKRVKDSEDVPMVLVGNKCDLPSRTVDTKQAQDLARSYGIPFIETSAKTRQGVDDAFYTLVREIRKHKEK
Protocol: as §6

PSN1 cells, pERK = assay: Inhibition of KRas phosphorylation of ERK (Cisbio HTRF Advanced pERK assay); format: cell-based; settings: Homo sapiens, PSN1, 3 h, read-out: Inhibition (HTRF IC50 nM) of KRas-mediated Phosphorylation of ERK, PSN1
In short: (§5)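 Overnight-plated cells (RPMI, 10% FBS); compound 3 h, 37 °C, 10 uM top, 3-fold x10, 0.8% DMSO; min ctrl trametinib 0.2 uM; lysis 40 min 4 °C; pERK by HTRF, 2 h RT.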

MKN1 cells, pERK = assay: as above; format: cell-based; settings: Homo sapiens, MKN-1, 3 h, read-out: Inhibition (HTRF IC50 nM) of KRas-mediated Phosphorylation of ERK, MKN1
In short: as §5

ASPC1 cells, pERK = assay: as above; format: cell-based; settings: Homo sapiens, ASPC1, 3 h, AsPC-1 cells, read-out: Inhibition (HTRF IC50 nM) of KRas-mediated Phosphorylation of ERK, AsPC-1
In short: as §5

H727 cells, pERK = assay: as above; format: cell-based; settings: Homo sapiens, NCI-H727, 3 h, read-out: Inhibition (HTRF IC50 nM) of KRas-mediated Phosphorylation of ERK, H727
In short: as §5

HCT116 cells, pERK = assay: as above; format: cell-based; settings: Homo sapiens, HCT-116, 3 hrs, read-out: Inhibition (HTRF IC50 nM) of KRas-mediated Phosphorylation of ERK, HCT116
In short: as §5

T1 sequence (P01116 1-169 isoform P01116-2 G12D): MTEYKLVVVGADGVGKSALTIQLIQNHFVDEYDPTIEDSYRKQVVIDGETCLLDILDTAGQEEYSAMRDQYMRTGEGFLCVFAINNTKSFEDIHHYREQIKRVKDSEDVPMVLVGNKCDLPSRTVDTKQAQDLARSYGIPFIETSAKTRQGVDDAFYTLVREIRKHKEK
Sequence of KRas^Q61H (P01116 1-169 isoform P01116-2 Q61H): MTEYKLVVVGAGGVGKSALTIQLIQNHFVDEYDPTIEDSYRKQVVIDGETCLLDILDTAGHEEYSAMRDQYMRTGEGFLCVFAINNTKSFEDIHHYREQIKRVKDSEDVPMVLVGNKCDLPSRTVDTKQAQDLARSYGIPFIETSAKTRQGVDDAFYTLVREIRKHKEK

What does the source list for `CCc1c(F)ccc2cc(O)cc(N3CCc4c(nc(OC[C@@]56CCCN5C[C@H](F)C6)nc4NCc4c[nH]c5ncccc45)C3)c12` [Example 23, 4-(4-(((1H-pyrrolo[2,3-b]pyridin-3-yl)methyl)amino)-2-(((2R,7aS)-2-fluorohexahydro-1H-pyrrolizin-7a-yl)methoxy)-5,6-dihydropyrido[3,4-d]pyrimidin-7(8H)-yl)-5-ethyl-6-fluoronaphthalen-2-ol]?
pIC50 (KRas^G12D): 7.16; pIC50 (KRas^Q61H): 7.42; pIC50 (KRas^G13D): 7.38; pIC50 (KRas^G12A): 8.05; pIC50 (KRas^G12R): 8.40; IC50 [1]: 1770 nM; IC50 [2]: 3850 nM; IC50 [3]: 2420 nM; pIC50 (KRas^G12S): 7.92; pIC50 (KRas^WT): 7.44; pIC50 (KRas^G12V): 8.30; pIC50 (KRas^G12C): 8.15; IC50 (PSN1 cells, pERK): ≥ 10000 nM; IC50 (MKN1 cells, pERK): 53 nM

`CCc1c(F)ccc2cc(O)cc(N3CCc4c(nc(OC[C@@]56CCCN5C[C@H](F)C6)nc4N4CCOCC(O)C4)C3)c12` (stereo partly drawn) [Example 29, 4-(7-(8-ethyl-7-fluoro-3-hydroxynaphthalen-1-yl)-2-(((2R,7aS)-2-fluorohexahydro-1H-pyrrolizin-7a-yl)methoxy)-5,6,7,8-tetrahydropyrido[3,4-d]pyrimidin-4-yl)-1,4-oxazepan-6-ol] was tested. Which pIC50 (KRas^G12D) did it give?
The pIC50 was at least 8.70.

And the pIC50 (KRas^G12R)?
The pIC50 was at least 8.70.

What about the IC50 [1] of the same molecule?
Its IC50 is 285 nM.

What about the IC50 [2] of the same molecule?
The IC50 was 509 nM.

What about the IC50 [3] of the same molecule?
Its IC50 is 542 nM.

What about the pIC50 (KRas^G12V) of the same molecule?
Its pIC50 is at least 8.70.

What about the IC50 (ASPC1 cells, pERK) of the same molecule?
The IC50 was 318 nM.

And the IC50 (PSN1 cells, pERK)?
The IC50 was 5810 nM.

What about the IC50 (MKN1 cells, pERK) of the same molecule?
Its IC50 is 20 nM.

And the IC50 (H727 cells, pERK)?
The IC50 was 906 nM.

And the IC50 (HCT116 cells, pERK)?
The IC50 was 1310 nM.

`CCc1c(F)ccc2cc(O)cc(N3CCc4c(nc(OC[C@@]56CCCN5C[C@H](F)C6)nc4N4CCOCC(n5cccn5)C4)C3)c12` (stereo partly drawn) [Example 25, 4-(4-(6-(1H-pyrazol-1-yl)-1,4-oxazepan-4-yl)-2-(((2R,7aS)-2-fluorohexahydro-1H-pyrrolizin-7a-yl)methoxy)-5,6-dihydropyrido[3,4-d]pyrimidin-7(8H)-yl)-5-ethyl-6-fluoronaphthalen-2-ol] was tested. Which pIC50 (KRas^G12D) did it give?
The pIC50 was 8.52.

And the pIC50 (KRas^G12R)?
The pIC50 was 8.40.

What about the IC50 [1] of the same molecule?
Its IC50 is 171 nM.

What about the IC50 [2] of the same molecule?
The IC50 was 448 nM.

What about the IC50 [3] of the same molecule?
Its IC50 is 540 nM.

And the pIC50 (KRas^G12V)?
The pIC50 was 8.52.

And the IC50 (ASPC1 cells, pERK)?
The IC50 was 180 nM.

And the IC50 (PSN1 cells, pERK)?
The IC50 was 8320 nM.

And the IC50 (MKN1 cells, pERK)?
The IC50 was 51 nM.

What about the IC50 (H727 cells, pERK) of the same molecule?
The IC50 was 767 nM.

And the IC50 (HCT116 cells, pERK)?
Its IC50 is 521 nM.

`CCc1c(F)ccc2cc(O)cc(N3CCc4c(nc(OC[C@@]56CCCN5C[C@H](F)C6)nc4N4CCCC(c5ncn[nH]5)C4)C3)c12` (stereo partly drawn) [Example 19, 4-(4-(3-(1H-1,2,4-triazol-5-yl)piperidin-1-yl)-2-(((2R,7aS)-2-fluorotetrahydro-1H-pyrrolizin-7a(5H)-yl)methoxy)-5,8-dihydropyrido[3,4-d]pyrimidin-7(6H)-yl)-5-ethyl-6-fluoronaphthalen-2-ol] was tested. Which pIC50 (KRas^G12D) did it give?
Its pIC50 is 7.59.

And the pIC50 (KRas^Q61H)?
The pIC50 was 8.05.

And the pIC50 (KRas^G13D)?
Its pIC50 is 7.96.

And the pIC50 (KRas^G12A)?
Its pIC50 is 8.40.

And the pIC50 (KRas^G12R)?
The pIC50 was 8.40.

What about the IC50 [1] of the same molecule?
The IC50 was 1290 nM.

And the IC50 [2]?
Its IC50 is 2680 nM.

And the IC50 [3]?
The IC50 was 2930 nM.

What about the pIC50 (KRas^G12S) of the same molecule?
Its pIC50 is 8.05.

And the pIC50 (KRas^WT)?
Its pIC50 is 8.10.

What about the pIC50 (KRas^G12V) of the same molecule?
Its pIC50 is 8.22.

And the pIC50 (KRas^G12C)?
Its pIC50 is 8.30.

What about the IC50 (PSN1 cells, pERK) of the same molecule?
The IC50 was at least 10000 nM.

And the IC50 (MKN1 cells, pERK)?
Its IC50 is 389 nM.

With `CCc1c(F)ccc2cc(O)cc(N3CCc4c(nc(OC[C@@]56CCCN5C[C@H](F)C6)nc4N4CCCn5nc(N)cc5C4)C3)c12` [Example 18, 4-(4-(2-amino-7,8-dihydro-4H-pyrazolo[1,5-a][1,4]diazepin-5(6H)-yl)-2-(((2R,7aS)-2-fluorohexahydro-1H-pyrrolizin-7a-yl)methoxy)-5,6-dihydropyrido[3,4-d]pyrimidin-7(8H)-yl)-5-ethyl-6-fluoronaphthalen-2-ol] as the molecule, how does the pIC50 (KRas^G12D) read?
Its pIC50 is at least 8.70.

What about the pIC50 (KRas^G12R) of the same molecule?
Its pIC50 is at least 8.70.

And the IC50 [1]?
The IC50 was 317 nM.

What about the IC50 [2] of the same molecule?
The IC50 was 182 nM.

And the IC50 [3]?
The IC50 was 503 nM.

What about the pIC50 (KRas^G12V) of the same molecule?
Its pIC50 is at least 8.70.

What about the IC50 (PSN1 cells, pERK) of the same molecule?
Its IC50 is at least 10000 nM.

What about the IC50 (MKN1 cells, pERK) of the same molecule?
Its IC50 is 22 nM.
